Each structure is given as a SMILES string. Like-named read-outs stand apart in the source and are kept apart here.

These results are taken from US5179089A, “Isoquinoline compounds, compositions and use” (Chinoin Gyogyszer es Vegyeszeti Termekek Gyara Rt., priority 1990, dated 1993).

Series [1] has as its system histamine-induced constriction of isolated tracheal smooth muscle of guinea pig. The series is described as follows: Inhibition of the histamine-induced constriction of isolated tracheal smooth muscle of guinea pig. The note with it: Cavia porcellus, 0.25 h, isolated guinea pig trachea, read-out: Inhibition of the histamine-induced constriction of isolated tracheal smooth muscle of guinea pig pd'2 (converted). The protocol:
I Study on the Effects Against Spasmogenic Mediators [modified method of J. C. […] The investigation on isolated organs were carried out as follows. OHF Lt/R9 guinea pigs of both sexes weighing 300 to 400 g each were anaesthetized by pentobarbital. Their trachea was removed and sectioned in the opposite side to the site of smooth muscle in longitudinal direction. Subsequently, a strip-like preparation was obtained by […] cutting. […] A rest load of 0.5 g was used. Several washings were carried out during the incubation period of 30 minutes. The change in the tension of the tracheal smooth muscle was followed by using an isometric Grass FT-03 type tensiometer sensor device. A washing was made following the cumulative dose series of the given mediator (e.g. histamine). After reaching the base line, by 15 minutes after administration of the given concentration of the inhibitory (antiasthmatic) substance to be tested, the next cumulative dose series of the mediator was administered. In the case of an inhibitory action, the strength of effect, following the second dose series of the mediator, was […] in comparison to that of the first (control) series. For characterization of strength of the competitive antagonistic effect the pA2 value was determined according to the method of […] A pd'2 value was calculated [J. M. Van Rossum: Arch. Int.

Series [2] relates to active local anaphylactic reaction. The series is described as follows: Effect influencing the active local anaphylactic reaction on rat. Type of series: in vivo, rat (female OFA). To be noted: oral dose of 50 mg/kg, 30th minute after induction. The method, then: 1) The effect influencing the active local anaphylactic reaction was measured according to the method of M. Koltay [Arch. Allergy App. Immun. 71, 181 (1983)].
Female OFA rats weighing 160 to 180 g each were sensitized by bovine serum albumin (BSA) adsorbed to 50 μg of Al(OH)3 gel together with the simultaneous administration of Bordatella pertussis vaccine.
The anaphylactic reaction was elicited by injecting 100 μg of BSA into the right hind paw plant in the 14th day.
The measurements were carried out before and 30 minutes after eliciting the reaction. The animals were orally treated with the compound to be tested 1 hour before the injection of BSA. The results were expressed as percentage inhibition compared to the control group (average %±S.E.M.).

Series [3] relates to carrageenin-induced rat paw edema. The series is described as follows: Carrageenin-induced rat paw edema test. The series is classed as in vivo, rat (female CFY). The note with it: Rattus norvegicus, po, 50 mg/kg (p.o.), read-out: Percentage of the protective effect. The protocol: Proc. Soc. Exp. Med. 111, 544 (1962)]. Female CFY rats weighing 100 to 120 g each were used after starvation for 24 hours. The inflammation was induced by injecting 0.1 ml of 1% carrageenin solution into the right hind paw plant. The severity of inflammation was determined by using an Ugo-Basile type plethysmometer. The measurement was carried out before and 1.5, 3 and 4.5 hours after induction of the inflammation. The animals were orally treated with the substance to be tested 1 hour before administration of carrageenin. The effect was expressed as percentage inhibition related to the control group.

In series [4] the test system is dextran-induced rat paw edema. Kind of series: Dextran-induced rat paw edema test. The series is classed as in vivo. To be noted: 50 mg/kg (p.o.). The protocol: 3) Dextran-induced rat paw edema test The method of S. Gourvaisier and R. Ducrot [Arch. Int. Pharmacodyn. Ther. 102, 33 (1955)] was employed. The method described for the carrageenin edema test was followed, except that the measurements were carried out 30, 60, 90, 120 and 180 minutes after induction of the inflammation.

The nature of another series: LD50 on rat. To be noted: in vivo, iv.
Another series in a line: LD50 on mouse. To be noted: in vivo.
For series [5], the system named is serotonin-induced constriction of the isolated tracheal smooth muscle of the guinea pig. Kind of series: Inhibition of the serotonin-induced constriction of isolated tracheal smooth muscle of guinea pig. The note with it: Cavia porcellus, 0.25 h, isolated guinea pig trachea, read-out: pd'2 value against serotonin (converted). The method, then:
(§1) I Study on the Effects Against Spasmogenic Mediators
[modified method of J. C.
(§2) The investigation on isolated organs were carried out as follows.
(§3) OHF Lt/R9 guinea pigs of both sexes weighing 300 to 400 g each were anaesthetized by pentobarbital. Their trachea was removed and sectioned in the opposite side to the site of smooth muscle in longitudinal direction. Subsequently, a strip-like preparation was obtained by serrately cutting.
(§4) A rest load of 0.5 g was used. Several washings were carried out during the incubation period of 30 minutes.
(§5) The change in the tension of the tracheal smooth muscle was followed by using an isometric Grass FT-03 type tensiometer sensor device. A washing was made following the cumulative dose series of the given mediator (e.g. histamine). After reaching the base line, by 15 minutes after administration of the given concentration of the inhibitory (antiasthmatic) substance to be tested, the next cumulative dose series of the mediator was administered. In the case of an inhibitory action, the strength of effect, following the second dose series of the mediator, was […] in comparison to that of the first (control) series.
A pd'2 value was calculated [J. M. Van Rossum: Arch. Int. […] The higher the pA2 or pd'2 value, respectively were, the higher was the antagonistic effect.

Series [6] has as its system acetylcholine-induced constriction of the isolated tracheal smooth muscle of the guinea pig. Kind of series: Inhibition of the acetylcholine-induced constriction of isolated tracheal smooth muscle of guinea pig. To be noted: Cavia porcellus, 0.25 h, isolated guinea pig trachea, read-out: pd'2 value against acetylcholine (converted). The method, then:
as §1
[modified method of J. C. Castillo et al.: Exp. Ther. 90, 104 (1947)]
as §2, §3
The organ was suspended in an organ bath containing 35 ml of Krebs solution at 37° C. bubbled through by carbogen gas (consisting of 95% of oxygen and 5% of carbon dioxide).
as §4, §5
For characterization of strength of the competitive antagonistic effect the pA2 value was determined according to the method of Schield [Br. J. Pharmacol. 4, 277 (1949)]. A pd'2 value was calculated [J. M. Van Rossum: Arch. Int. Pharmacodyn 143, 317 (1963)] to characterize the noncompatitive antagonistic effectivity. The higher the pA2 or pd'2 value, respectively were, the higher was the antagonistic effect.

By LD50 is commonly meant the dose at which mortality reaches 50%. As to `CCOc1cc2c(cc1OCC)C(=C(C#N)SCC(O)CN1CCOCC1)NCC2` (stereo not shown) [Example 18, 2-(6,7-diethoxy-1,2,3,4-tetrahydro-1-isoquinolinylidene)-2-[2-hydroxy-3-(4-morpholinyl)propyl]mercaptoacetonitrile], the IC50 in series [1] was 0.123 µM. Also, the “Percentage of inhibition of the active local anaphylactic reaction” value in series [2] is on record as -31%. Besides, the change in vivo at 50 mg/kg in series [3] (1.5 hours) is -35.8%; in series [3] (3 hours) it was -29.3%; in series [3] (4.5 hours), -28.4%. The Percentage of inhibition in series [4] (30 minutes) was 29.8%; in series [4] (60 minutes), 38.7%; in series [4] (90 minutes), 30.4%; in series [4] (120 minutes), 26.3%; in series [4] (180 minutes), 28.4%. Further, the LD50 is 133 mg/kg in “LD50 on rat” (female rat); 91.4 mg/kg in the series “LD50 on rat” (male rat); 150 mg/kg in “LD50 on mouse” (iv, female mouse, read-out: LD50 i.v.); 166 mg/kg in “LD50 on mouse” (iv, male mouse, read-out: LD50 i.v.); 1030 mg/kg in “LD50 on mouse” (po, female mouse, read-out: LD50 p.o.); 1200 mg/kg in the series “LD50 on mouse” (po, male mouse, read-out: LD50 p.o.).

As for `CCOc1cc2c(cc1OCC)C(=C(C#N)SCC(CN1CCOCC1)OC(C)=O)NCC2` (stereo not shown) [Example 24, 2-(6,7-diethoxy-1,2,3,4-tetrahydro-1-isoquinolinylidene)-2-[2-acetoxy-3-(4-morpholinyl)propyl]mercaptoacetonitrile], the IC50 was 1.17 µM in series [1], 8.91 µM in series [5] and 9.55 µM in series [6]. For the same molecule, the change in vivo at 50 mg/kg was -25.8% in series [3] (1.5 hours), -20.3% in series [3] (3 hours) and -20% in series [3] (4.5 hours).
